Laboratory results reported in patent publication US7745450B2, “Pyrazolo[4,3-d]pyrimidines, processes for their preparation and methods for therapy” (Institute of Experimental Botany, priority 2002, dated 2010).

Key:
[1] = test system: CEM (human lymphoblastoid leukemia); assay: In vitro cytotoxic activity, Calcein AM; format: cell-based; details: Homo sapiens, 72 h, three days
Method: We have been using the following cell lines: HELA (human cervical carcinoma), MCF7 (human breast adenocarcinoma), NIH 3T3 (mouse fibroblasts), HOS (human osteogenic sarcoma), HL 60 (human promyelocytic leukemia), G 361 (human malignant melanoma), K562 (human erythroleukemia), CEM (human lymphoblastoid leukemia). Tested drugs were added to the cell cultures in six different concentration and kept at 37° C. and 5% CO2 for three days. All cell lines were grown in DMEM medium (Gibco BRL) supplemented with 10% (v/v) fetal bovine serum and L-glutamine and maintained at 37° C. in a humidified atmosphere with 5% CO2. 10^4 cells were seeded into each well of 96 well plate, allowed to stabilize for at least 2 h and then tested compounds were added at various concentrations ranging from 200 to 0.2 μM in triplicates. Three days after drug addition Calcein AM solution (Molecular Probes) was added and let to enter the cells for 1 hour. Fluorescence of viable cells was quantified employing Fluoroskan Ascent (Microsystems).

B16 = assay: In vitro cytotoxic activity, Calcein AM; format: cell-based; details: Mus musculus, B16, 72 h, three days
IκB-α kinase = IκB-α kinase inhibition, in vitro kinase assay; format: biochemical
cdk1/cyclin B (CDC2) = cdk1/cyclin B (CDC2) (Homo sapiens, UniProt P06493); assay: CDK inhibition assay, cdk1/cyclin B (CDC2) kinase, histone phosphorylation; format: biochemical
Chain of cdk1/cyclin B (CDC2) (P06493 whole entry, species assumed): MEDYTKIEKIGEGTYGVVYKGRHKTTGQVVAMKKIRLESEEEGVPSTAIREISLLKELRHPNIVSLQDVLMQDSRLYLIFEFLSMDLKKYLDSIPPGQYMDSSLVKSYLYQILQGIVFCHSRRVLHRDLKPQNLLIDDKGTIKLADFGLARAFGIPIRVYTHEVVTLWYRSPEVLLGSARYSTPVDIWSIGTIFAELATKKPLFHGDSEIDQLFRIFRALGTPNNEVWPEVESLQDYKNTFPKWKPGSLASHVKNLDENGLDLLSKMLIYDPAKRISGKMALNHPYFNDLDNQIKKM
Chain of cdk1/cyclin B (CDC2) (P14635 whole entry partner, species assumed): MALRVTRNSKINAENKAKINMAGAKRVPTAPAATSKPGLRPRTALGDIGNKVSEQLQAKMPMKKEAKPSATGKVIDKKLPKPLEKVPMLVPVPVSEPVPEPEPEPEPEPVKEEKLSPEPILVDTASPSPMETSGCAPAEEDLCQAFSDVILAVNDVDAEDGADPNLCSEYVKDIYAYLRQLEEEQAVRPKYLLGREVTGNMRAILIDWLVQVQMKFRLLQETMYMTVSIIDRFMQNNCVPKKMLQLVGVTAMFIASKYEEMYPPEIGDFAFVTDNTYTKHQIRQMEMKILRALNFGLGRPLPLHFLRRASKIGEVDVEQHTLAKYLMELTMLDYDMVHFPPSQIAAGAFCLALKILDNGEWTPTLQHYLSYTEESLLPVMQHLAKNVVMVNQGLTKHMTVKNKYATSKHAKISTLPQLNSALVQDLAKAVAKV
Method: Selected compounds were tested for cdk1/cyclin B and cdk2/cyclin E inhibitory activity to determine the basic relationships between their interaction energy of docked complex and the inhibitory activity. Cdk2/cyclin E complex was produced in SIP insect cells co-infected with appropriate baculoviral construct. The cells were harvested 70 hours post infection in lysis buffer (50 mM Tris 7.4 pH, 150 mM NaCl, 5 mM EDTA, 20 mM NaF, 1% Tween 20, protease inhibitors) for 30 min on ice and the soluble fraction was recovered by centrifugation at 14.000 g for 10 min. The protein extract was stored at −80° C. until use. The final point test system for kinase activity measurement was used to carry out experiments on the kinetics under linear conditions. The assay mixture contained 1 mg/ml histone (Sigma Type III-S), 15 μM ATP, 0.2 μCi [γ-^32P] ATP and tested compound in a final volume of 20 μl, all in reaction buffer: 50 mM Hepes 7.4 pH, 10 mM MgCl2, 5 mM EGTA, 10 mM 2-glycerolphosphate, 1 mM NaF, 1 mM DTT and protease inhibitors. […] The measurement of kinase inhibition employed the digital imaging analyzer BAS 1800. The kinase activity was expressed as a percentage of maximum activity and the IC50 value was determined by graphic analysis. The kinase activity is expressed as a percentage of maximum activity, the apparent inhibition constants are determined by graphic analysis from dose-response curves presented on FIG. 1.

IC50 (IκB-α kinase) [nM] | IC50 (cdk1/cyclin B (CDC2)) [nM] | Structure (SMILES) | GI50 [1] [nM] | GI50 (B16) [nM]
 |  | CC(C)c1n[nH]c2c(Nc3ccc(Cl)c(N)c3)nc(N[C@@H](CO)C(C)C)nc12 | 2900 | 4400
210 | 90 | CC[C@H](CO)Nc1nc(NC(CO)c2ccccc2)c2[nH]nc(C(C)C)c2n1 (mixture of isomers) |  | 
280 | 110 | CC(C)c1n[nH]c2c(Nc3cccc(Cl)c3)nc(NCCO)nc12 |  | 
 |  | CC(C)c1n[nH]c2c(Nc3ccc(N)c(Cl)c3)nc(N[C@@H](CO)C(C)C)nc12 | 2500 | 4800
 |  | CC(C)c1n[nH]c2c(NCc3cccc(Cl)c3O)nc(N[C@@H](CO)C(C)C)nc12 | 700 | 1100
 |  | CC[C@H](CO)Nc1nc(Nc2ccc(C(=O)O)c(Cl)c2)c2[nH]nc(C(C)C)c2n1 | 7900 | 11200
12 | 8 | CC[C@H](CO)Nc1nc(NCc2ccccc2O)c2[nH]nc(C(C)C)c2n1 |  | 
3 | 0.8 | CC[C@H](CO)Nc1nc(NCc2c(O)cc(OC)cc2O)c2[nH]nc(C(C)C)c2n1 [listing 1 of 2 here] |  | 
1200 | 500 | CC(=O)Oc1ccccc1CNc1nc(NCCO)nc2c(C)n[nH]c12 |  | 
29 | 12 | Cc1n[nH]c2c(Nc3ccc(N)c(Cl)c3)nc(NCCO)nc12 |  | 
150 | 60 | CC(C)c1n[nH]c2c(NC(CO)c3ccccc3)nc(N[C@@H](CO)C(C)C)nc12 (mixture of isomers) |  | 
 |  | CC(C)c1n[nH]c2c(Nc3ccc(Cl)c(C(=O)O)c3)nc(N[C@@H](CO)C(C)C)nc12 | 5800 | 9100
90 | 40 | Cc1n[nH]c2c(Nc3cccc(Cl)c3)nc(NCCO)nc12 |  | 
 |  | CC(C)c1n[nH]c2c(NCc3cccc(O)c3)nc(N[C@@H](CO)C(C)C)nc12 [listing 1 of 2 here] | 4900 | 8500
50 | 20 | Cc1n[nH]c2c(Nc3ccc(O)c(C(=O)O)c3)nc(NCCO)nc12 |  | 
2 | 1 | CC(C)c1n[nH]c2c(NCc3c(O)cc(Cl)cc3O)nc(N[C@@H](CO)C(C)C)nc12 [listing 1 of 2 here] |  | 
21 | 9 | Cc1n[nH]c2c(NCc3ccc(Cl)c(O)c3O)nc(NCCO)nc12 |  | 
1500 | 720 | CC[C@H](CO)Nc1nc(N(C)CCc2ccc(O)c(O)c2)c2[nH]nc(C(C)C)c2n1 |  | 
 |  | CC(C)c1n[nH]c2c(NCc3ccccc3O)nc(N[C@@H](CO)C(C)C)nc12 | 6700 | 9800

IC50 (IκB-α kinase) [nM] | IC50 (cdk1/cyclin B (CDC2)) [nM] | Structure (SMILES) | GI50 [1] [nM] | GI50 (B16) [nM]
800 | 200 | Cc1n[nH]c2c(NCc3ccc(Cl)c(N)c3)nc(NCCO)nc12 |  | 
1.5 | 0.6 | COc1cc(O)c(CNc2nc(N[C@@H](CO)C(C)C)nc3c(C(C)C)n[nH]c23)cc1O [listing 1 of 2 here] |  | 
 |  | CC(C)c1n[nH]c2c(NCc3ccc(Cl)c(O)c3O)nc(N[C@@H](CO)C(C)C)nc12 [listing 1 of 2 here] | 900 | 1400
50 | 20 | Cc1n[nH]c2c(NCc3ccccc3O)nc(NCCO)nc12 |  | 
 |  | CC[C@H](CO)Nc1nc(Nc2ccc(Cl)cc2)c2[nH]nc(C(C)C)c2n1 | 6700 | 9500
 |  | Cc1n[nH]c2c(NC(CO)c3ccccc3)nc(NCCO)nc12 (racemic) [listing 1 of 2 here] | 8900 | 9400
2300 | 1000 | CC(C)c1n[nH]c2c(NCc3ccccc3)nc(NCCO)nc12 |  | 
15 | 7 | COc1cc(O)c(CNc2nc(NCCO)nc3c(C)n[nH]c23)cc1O |  | 
1700 | 400 | CC(=O)Oc1cccc(CNc2nc(NCCO)nc3c(C)n[nH]c23)c1 |  | 
310 | 150 | CC(C)c1n[nH]c2c(NCc3ccc(O)c(O)c3)nc(N[C@@H](CO)C(C)C)nc12 |  | 
1800 | 700 | Cc1n[nH]c2c(NCc3ccccc3)nc(NCCCO)nc12 |  | 
 |  | Cc1cccc(CNc2nc(N[C@@H](CO)C(C)C)nc3c(C(C)C)n[nH]c23)c1O | 1200 | 3500
1 | 0.2 | CC(C)c1n[nH]c2c(NCc3ccc(Cl)c(O)c3O)nc(N[C@@H](CO)C(C)C)nc12 [listing 2 of 2 here] |  | 
510 | 230 | CC[C@H](CO)Nc1nc(N(C)Cc2ccc(O)c(O)c2)c2[nH]nc(C(C)C)c2n1 |  | 
 |  | CC[C@H](CO)Nc1nc(NCc2c(O)cc(OC)cc2O)c2[nH]nc(C(C)C)c2n1 [listing 2 of 2 here] | 1800 | 3400
 |  | CC(C)c1n[nH]c2c(Nc3ccc(O)c(C(=O)O)c3)nc(N[C@@H](CO)C(C)C)nc12 | 2700 | 4200
 |  | CC(C)c1n[nH]c2c(Nc3ccc(Cl)cc3)nc(N[C@@H](CO)C(C)C)nc12 | 4100 | 5700
 |  | CC[C@H](CO)Nc1nc(Nc2ccc(Cl)c(C(=O)O)c2)c2[nH]nc(C(C)C)c2n1 | 4500 | 5200
 |  | CC(=O)Oc1cccc(CNc2nc(N[C@@H](CO)C(C)C)nc3c(C(C)C)n[nH]c23)c1 | 12500 | 14600

IC50 (IκB-α kinase) [nM] | IC50 (cdk1/cyclin B (CDC2)) [nM] | Structure (SMILES) | GI50 [1] [nM] | GI50 (B16) [nM]
200 | 80 | CC(C)c1n[nH]c2c(Nc3cccc(Cl)c3)nc(NCCCO)nc12 |  | 
9300 | 4000 | Cc1n[nH]c2c(NCc3ccccc3)nc(NCCO)nc12 [2-hydroxyethylamino; benzylamino; methyl] |  | 
90 | 40 | CC(=O)c1cccc(CNc2nc(NCCO)nc3c(C)n[nH]c23)c1 |  | 
4 | 2 | CC(C)c1n[nH]c2c(NCc3cccc(O)c3)nc(N[C@@H](CO)C(C)C)nc12 [listing 2 of 2 here] |  | 
400 | 200 | Cc1n[nH]c2c(NC(CO)c3ccccc3)nc(NCCO)nc12 (racemic) [listing 2 of 2 here] |  | 
19 | 9 | Cc1n[nH]c2c(Nc3ccc(Cl)cc3)nc(NCCO)nc12 |  | 
23 | 9 | Cc1n[nH]c2c(Nc3ccc(Cl)c(N)c3)nc(NCCO)nc12 |  | 
1100 | 500 | CC[C@H](CO)Nc1nc(NCc2ccc(O)c(O)c2)c2[nH]nc(C(C)C)c2n1 |  | 
 |  | CC(C)c1n[nH]c2c(Nc3ccc(C(=O)O)c(Cl)c3)nc(N[C@@H](CO)C(C)C)nc12 | 7600 | 12400
 |  | CC[C@H](CO)Nc1nc(Nc2ccc(Br)cc2)c2[nH]nc(C(C)C)c2n1 | 6500 | 9800
 |  | CC(C)c1n[nH]c2c(NCc3ccc(Cl)c(N)c3)nc(N[C@@H](CO)C(C)C)nc12 | 2600 | 4400
 |  | CC(C)c1n[nH]c2c(NCc3c(O)cc(Cl)cc3O)nc(N[C@@H](CO)C(C)C)nc12 [listing 2 of 2 here] | 400 | 1200
 |  | CC(C)c1n[nH]c2c(Nc3ccc(Br)cc3)nc(N[C@@H](CO)C(C)C)nc12 | 5800 | 11400
 |  | COc1ccc(CNc2nc(N[C@@H](CO)C(C)C)nc3c(C(C)C)n[nH]c23)c(O)c1O | 600 | 2500
 |  | CC(C)c1n[nH]c2c(NCc3c(N)cccc3Cl)nc(N[C@@H](CO)C(C)C)nc12 | 1500 | 2500
 |  | CC(C)c1n[nH]c2c(NCc3cc(O)c(Cl)cc3O)nc(N[C@@H](CO)C(C)C)nc12 | 1300 | 2700
 |  | COc1cc(O)c(CNc2nc(N[C@@H](CO)C(C)C)nc3c(C(C)C)n[nH]c23)cc1O [listing 2 of 2 here] | 1700 | 2500
 |  | CC[C@H](CO)Nc1nc(Nc2ccc(N)c(Cl)c2)c2[nH]nc(C(C)C)c2n1 | 12200 | 19600
 |  | CC(C)c1n[nH]c2c(Nc3ccccc3)nc(N[C@@H](CO)C(C)C)nc12 | 2500 | 3600
